# Where “and” joins values, the source holds several entries; their conditions need not be identical. Equal entries are not always repeated. Where two headings read alike, the source gives them in different places.
# What was measured:
# P-gp = test system: P-gp; set-up: method as in Investigator's Brochure; details: ref Investigator's Brochure, read-out: IC50, transporter inhibition; cited from earlier work
# FARAGE (GCB DLBCL) = test system: FARAGE (GCB DLBCL); set-up: method as in Report CC-90010-Pharm-1018; details: read-out: absolute IC50, proliferation, cited from earlier work
# GBM15 GBM PDX = test system: GBM15 GBM PDX; set-up: method as in Unpublished data from Celgene Corporation; details: Day 29, ref Unpublished data from Celgene Corporation, cited from earlier work
# [1] = set-up: method as in Unpublished data from Celgene Corporation; details: COH70 study, ref Unpublished data from Celgene Corporation; cited from earlier work
# [2] = set-up: method as in Investigator's Brochure; details: dogs, ref Investigator's Brochure, cited from earlier work
# OCT2 = test system: OCT2; set-up: method as in Investigator's Brochure; details: OCT2, ref Investigator's Brochure; read-out: IC50, transporter inhibition; cited from earlier work
# CYP2C19 = test system: CYP2C19; set-up: method as in Investigator's Brochure; details: CYP2C19, ref Investigator's Brochure; read-out: IC50, direct inhibition; cited from earlier work
# R/R DLBCL = assay: Tumor response (International Working Group criteria), PFS and OS in phase I study, part B; format: in vivo, human
# Experimental: Secondary objectives were the preliminary efficacy of trotabresib in terms of clinical benefit rate (CR + PR + SD of ≥4 months’ duration), ORR (CR + PR), duration of response or SD, PFS, OS, and the PK of trotabresib. In addition, part C assessed the effects of food on the PK and the safety of trotabresib as a secondary objective. The pharmacodynamics of trotabresib were assessed as an exploratory objective.
# Response was assessed using Response Evaluation Criteria in Solid Tumors (RECIST) v1.1[54] in patients with solid tumors, International Working Group criteria in patients with DLBCL[55], and Response Assessment in Neuro-Oncology (RANO) criteria[56] in patients with CNS tumors (astrocytoma and glioblastoma). For patients with BCC, the response was assessed using a combination of radiological assessment of target lesions per RECIST v1.1, digital clinical photography assessed per World Health Organization (WHO) criteria, and punch biopsies to confirm CR. PK parameters assessed included Cmax, tmax, AUC, t½, apparent clearance (CL/F), and apparent volume of distribution (Vz/F).
# Bayesian logistic regression model based on dose-limiting toxicity was used to provide initial guidance for dose recommendations in the dose-escalation phase. The final decision was reached by considering the totality of safety, PK, and PD data. For binary efficacy endpoints, two-sided 95% Clopper–Pearson exact confidence intervals were provided. For time-to-event endpoints (PFS and OS), the median and 95% CI were estimated using the Kaplan–Meier method.
# [3] = test system: human ether-à-go-go-related gene (hERG); set-up: method as in Investigator's Brochure; details: ref Investigator's Brochure; cited from earlier work
# [4] = ref Investigator's Brochure, cited from earlier work
# OAT1 = test system: OAT1; set-up: method as in Investigator's Brochure; details: OAT1, 30 µM, ref Investigator's Brochure; cited from earlier work
# OCI-LY-10 (ABC DLBCL) = test system: OCI-LY-10 (ABC DLBCL); set-up: method as in Report CC-90010-Pharm-1018; details: OCI-LY-10, Table 2, ref Report CC-90010-Pharm-1018; read-out: absolute IC50, proliferation; cited from earlier work
# OCI-LY-19 (GCB DLBCL) = test system: OCI-LY-19 (GCB DLBCL); set-up: method as in Report CC-90010-Pharm-1018; details: OCI-LY-19, Experiment 1, ref Report CC-90010-Pharm-1018; read-out: absolute IC50, proliferation; cited from earlier work
# [5] = test system: MYC expression in COH70 TNBC PDX tumor; set-up: method as in Investigator's Brochure; details: ref Investigator's Brochure, cited from earlier work
# GBM3 GBM PDX = test system: GBM3 GBM PDX; set-up: method as in Unpublished data from Celgene Corporation; details: ref Unpublished data from Celgene Corporation, cited from earlier work
# [6] = set-up: method as in Unpublished data from Celgene Corporation; details: after final dose, ref Unpublished data from Celgene Corporation, cited from earlier work
# [7] = Biopharmaceutic and physicochemical profile
# OATP1B1 = test system: OATP1B1; set-up: method as in Investigator's Brochure; details: OATP1B1, ref Investigator's Brochure; read-out: IC50, transporter inhibition; cited from earlier work
# [8] = set-up: method as in Unpublished data from Celgene Corporation; details: ref Unpublished data from Celgene Corporation, cited from earlier work
# [9] = part B R/R DLBCL (N = 23), treated population
structure (smiles),measurement,setting,value
Cn1cc(-c2cc(S(C)(=O)=O)ccc2OCC2CC2)c2ccccc2c1=O [trotabresib],IC50,P-gp,2 µM
same,IC50,"FARAGE (GCB DLBCL); FARAGE, Experiment 1, ref Report CC-90010-Pharm-1018",0.71 µM
same,IC50,"FARAGE (GCB DLBCL); Farage, Experiment 2, ref Report CC-90010-Pharm-1018",3.35 µM
same,mean percent TGI,"GBM15 GBM PDX; GBM15, 15 mg/kg/dose (5/2)",65%
same,mean percent TGI,"GBM15 GBM PDX; GBM15, 25 mg/kg/dose (3/4)",65%
same,mean percent TGI,"GBM15 GBM PDX; GBM15, 37.5 mg/kg/dose (2/5)",70%
same,daily dose up to which well tolerated,[1],25 mg/kg
same,mean oral bioavailability,[2],76%
same,accumulation after repeat dosing,[2]; toxicokinetics,up to 3 fold
same,IC50,OCT2,8.24 µM
same,IC50,CYP2C19,≥ 13.9 µM
same,reduction in target lesion size,"R/R DLBCL; one patient with GCB immunophenotype R/R DLBCL, after two cycles",57%
same,Median OS (95% CI),R/R DLBCL; part B DLBCL (n = 23),159 days and 159 (101–NE) days
same,Median PFS (95% CI),R/R DLBCL; part B DLBCL (n = 23),54 (49–65) days
same,OS range,R/R DLBCL; part B DLBCL (n = 23),44 to 423 days
same,PFS range,R/R DLBCL; part B DLBCL (n = 23),12 to 423 days
same,best response CR,R/R DLBCL; part B R/R DLBCL (N = 23),8.7%
same,best response PD,R/R DLBCL; part B R/R DLBCL (N = 23),43.5%
same,best response PR,R/R DLBCL; part B R/R DLBCL (N = 23),4.3%
same,best response SD,R/R DLBCL; part B R/R DLBCL (N = 23),8.7%
same,CBR,R/R DLBCL; [9],17.4%
same,ORR,R/R DLBCL; [9],13.0%
same,total treatment duration,"R/R DLBCL; part B, one patient with transformed DLBCL, ongoing at cycle 17",1.6 years
same,IC50,[3],24.3 µM
same,severely toxic dose,[4]; 4-week Beagle dog study,7.50 mg base/kg/dose
same,cardiovascular and respiratory effects,[4]; conscious Beagle dogs,"no CC-90010-related effects on electrocardiograms, heart rate"
same,highest non-severely toxic dose (HNSTD),"[4]; dog, 3-days-on/4-days-off schedule",3.75 mg base/kg/dose
same,mean exposure corresponding to the dog HNSTD,[4],10000 ng·h/mL
same,inhibition of mediated transport,OAT1,45.6%
same,IC50,OCI-LY-10 (ABC DLBCL),0.418 µM
same,IC50,OCI-LY-19 (GCB DLBCL),0.22 µM
same,maximal suppression of MYC expression,"[5]; COH70, 2 mg/kg, at 2 hours",51.3%
same,maximal suppression of MYC expression,"[5]; COH70, 10 mg/kg, at 4 hours",63.4%
same,TGI,"GBM3 GBM PDX; GBM3, 6 mg/kg orally BID",76%
same,TGI,"GBM3 GBM PDX; GBM3, 12 mg/kg orally QD",63%
same,"AUC0-24hr, steady state",[6]; 12.5 mg/kg,"12,003 ng·hr/mL"
same,"AUC0-24hr, steady state",[6]; 16 mg/kg,"15,174 ng·hr/mL"
same,ionization,[7],non-ionizable
same,Biopharmaceutics Classification System (BCS) behavior,[7]; data on file,Category II like
same,IC50,OATP1B1,4.94 µM
same,weight loss,"[8]; GBM15, 15 mg/kg/dose group",-6.6%
same,weight loss,"[8]; GBM15, 25 mg/kg/dose group",-3.7%
same,weight loss,"[8]; GBM15, 37.5 mg/kg/dose group",-3.1%
